{"source": "patent US11160767B2", "about": "“4,4′-trans-dihydroxystilbene for use in treating cancer” (The George Washington University, a Congressionally …, priority 2017, dated 2021)", "key": {"[1]": {"tested_on": "SKOV3-CP7", "test": "DHS and cisplatin, SKOV3-CP7 cells", "type": "cell-based, human", "excerpt": "The effect of DHS on a human SKOV3 ovarian cell line and its cisplatin-resistant subline, SKOV3/CP7, was investigated."}, "[2]": {"tested_on": "cancer cell lines", "test": "NCI Development Therapeutics Program cell line growth", "type": "cell-based", "conditions": "NCI DTP cell lines", "procedure": "To confirm the cell killing effect of DHS, a clonogenic colony formation assay was conducted. […] The effect of DHS on growth of cancer cell lines was analyzed using The NCI Development Therapeutics Program (DTP)."}, "[3]": {"conditions": "mouse, in vivo", "protocol": "Xenograft mouse models. […] In xenograft studies, HCT116 (3×10^6 cells) and IGROV3/CP2 (5×10^6 cells) suspended in 100 μl of phosphate buffered saline (PBS, pH 7.4) were injected subcutaneously into the lower flank of the mice. Testing compounds were dissolved in DMSO/Tween 80/saline (10:10:80; v/v/v) buffer and were used to treat animals through intraperitoneal (i.p.) injection. […] The body weight of animals was measured throughout the study. Tumor diameters were measured with digital calipers, and the tumor volume in mm^3 was calculated by the formula: Volume=(width)^2×length/2.\nHCT116 cells (5×10^6) were injected subcutaneously in nude mice and grown to approximately 100 mm^3 in volume. […] To study the preclinical toxicity of DHS, samples of hearts, livers, spleens, lung, and kidneys were collected on Day 38 and sections were stained for histological examination."}, "[4]": {"tested_on": "HCT116 cells", "test": "Comet assay", "type": "cell-based, human", "conditions": "2.5 μM for 24 hours", "procedure": "Comet assay. HCT116 cells were treated with DHS for 0.5 or 24 hours. Afterward, the cells were irradiated with X-rays at a dose of 20 Gy. An aliquot of 80 μL cell suspension were mixed with 400 μL 1.2% low melting point agarose and plated on Fisherfinest microscope slide (Thermo Scientific, Pittsburgh, Pa., US), which had already been layered with 120 μL 1% agarose gel. Cells were then lysed and DNA was electrophoretically separated. The gels were neutralized before staining with 60 μL of 5 μM SYBR green. The shape of the stained DNA mass in at least 50 cells in each sample was analyzed with OpenComet software (MA, US).\nTo investigate whether inhibition of DNA replication by DHS can trigger DNA damage, the DNA damage markers phosphor-Chk1 (pChk1, Serine 345) and phosphor-Chk2 (pChk2, Threonine 68) were analyzed in DHS-treated HCT116 cells. […] A comet assay was next used to test if DNA double strand breaks are induced by DHS."}, "[5]": {"tested_on": "HCT116 cells", "test": "DNA fiber assay", "type": "cell-based, human", "procedure": "Thus, the effect of DHS on DNA replication and cell cycle progression was investigated. Replication fork speeds were examined by DNA fiber assay (FIG. 7A). Briefly, DHS, hydroxyurea (Hu), or Aphidicolin (Aph) was added to HCT116 cells 2 hours prior to labeling of DNA with iododeoxyuridine (IdU) and/or chlorodeoxyuridine (CldU)."}, "[6]": {"tested_on": "MDA-231/GFP", "test": "In vitro cytotoxicity (SRB assay), MDA-231/GFP", "type": "cell-based", "conditions": "Homo sapiens, MDA-MB-231, 72 hours", "procedure": "Cell lines and cell culture. HCT116, U205, PANC-1, MDA-231 cell lines were purchased from the American Type Culture Collection (Rockville, Md., US). Cells were cultured in the DMEM medium (Lonza, Basel, Switzerland) containing 10% fetal bovine serum (Gibco, Grand Island, N.Y., US), 100 Units/ml penicillin, 100 Units/mL streptomycin, […] L-glutamine (Gibco, Grand Island, N.Y., US) at 37° C. in a humidified atmosphere with 5% CO2.\nIn vitro cytotoxicity assays. […] SRB assay (Vichai and Kirtikara, 2006) was performed and the absorbance at 510 nm was read with a plate reader. The proliferation rate was calculated according to the Manufacturer's instruction. The IC50 value for each compound was determined from dose-effect relationship using the CompuSyn software (version 1.0.1; CompuSyn, Inc, Paramus, N.J.) (Chou, 2006). Cell proliferating doubling time was monitored over a period of 72 hours."}}}
{"smiles": "Oc1ccc(/C=C/c2ccc(O)cc2)cc1", "note": "[DHS, 4,4′-trans-dihydroxystilbene]", "values": [{"measurement": "Re-sensitisation to cisplatin", "setting": "[1]", "result": "re-sensitized the SKOV3/CP7 cells to cisplatin"}, {"measurement": "Sensitivity to DHS alone", "setting": "[1]", "result": "sensitive to DHS treatment alone"}, {"measurement": "Cancer cell growth (GI50) compared to resveratrol", "setting": "[2]", "result": "improved effect on suppressing cancer cell growth as compared to resveratrol"}, {"measurement": "Histology, hearts, livers, lung, and kidneys", "setting": "[3]", "result": "no obvious damage"}, {"measurement": "Histology, spleens", "setting": "[3]", "result": "Minor damage"}, {"measurement": "DNA double strand breaks (lengths of tail moments)", "setting": "[4]", "result": "caused significant DNA double strand breaks"}, {"measurement": "Rate of replication fork progression (folk speed)", "setting": "[5]", "result": "significantly reduced"}, {"measurement": "DNA replication stalling", "setting": "[5]; added 2 hours prior to labeling", "result": "dramatically caused DNA replication stalling"}, {"measurement": "IC50", "setting": "[6]", "result": "5.32 ± 3.38", "unit": "µM"}]}
